Laboratory results reported in US11834435B2, “SSTR4 agonist salts” (Eli Lilly and Company, priority 2021, dated 2023).

Key:
[1] = target: T1, hSSTR4 (Homo sapiens (Human), UniProt P31391); assay: cAMP assay (inhibition of forskolin-stimulated cAMP) in hSSTR4 expressing H4 cells; assay type: cell-based; conditions: after being dissolved to free base forms
Protocol: The activation of the SSTR4 receptor (G coupled) causes an inhibition of intracellular cAMP after stimulation with Forskolin, which can be quantifiable by use of a suitable assay Kit and an adequate plate reader. This technique is used to characterize pharmacological effects of the SSTR4 receptor agonists by use of hSSTR4 expressing H4 cells. The compound is dissolved and diluted in DMSO. The final test solution contains 1% DMSO. The cAMP standard (Lance™ cAMP 384 Kit; PerkinElmer, Cat #AD0264) is prepared in assay buffer (HBSS with 0.1% BSA, 5 mM HEPES, […], pH 7.4) containing 1% DMSO and the cAMP standard curve is included at least on one plate. Cells are centrifuged and suspended in assay buffer (incl. 1:100 diluted Alexa Fluor® antibody). For the assay 5 μL of a cell suspension (approximately 5000 cells/well)-incl. Alexa Fluor® antibody (diluted 1:100) are added into a 384 well MTP microtiter plate excepting one row or column (depending on the plate layout), which is reserved for the standard curve. Then 2 μL of compound sample is added as concentration response curve (e.g., le-5 M to 6e-10 M), usually in triplicates. Each assay contains incubations with vehicle controls instead of compound as controls for non-inhibited cAMP generation (100% CTL; ‘high values’) and incubations with 1 μM Somatostatin as controls for full inhibition and background (0% CTL; ‘low values’). After approximately 10-15 min incubation time 3 μL Forskolin (dissolved in DMSO, final conc. 15 μM) is added. Then the plates are shaken briefly and incubated for 60 min at RT. After 60 min 10 μL of the detection mix is added into all wells followed by an additional incubation period of 1 h. The plates are read in a suitable plate reader. The analysis of the data is based on the “ratio” of the time-resolved fluorescence measurements of donor and acceptor fluorophore (Ex: 320 nm; Em1: 665 nm; Em2: 615 nm; ratio 665/615). From this ratio, cAMP concentrations are calculated from standard curve and the EC50 is estimated by least square curve fit program. […]

[2] = target: T1, hSSTR4; assay: Radioligand competition binding, membrane homogenate; conditions: after being dissolved to free base forms
Protocol: In competition experiments, the test compound, which is not labeled, competes with the binding site of a labeled ligand. The displacement of the labeled ligand by the test compound leads to a decreased signal. For the binding experiments 200 μL of membrane homogenate from one of the following protein amounts is used: hSSTR1 (40 μg/well); hSSTR2 (25 μg/well); hSSTR3 (1.5 μg/well); hSSTR4 (0.5 μg/well); hSSTR5 (25 μg/well). The homogenate is incubated with 0.05 nM of radioligand ([3-125I-Tyr]-Somatostatin-(1-14)) in addition to increasing concentrations of a test compound or vehicle (100% binding) in a total volume of 250 μL using a Hepes buffer (10 mM, EDTA 1 mM, MgCl2 5 mM, pH 7.6, BSA 0.5%, Bacitracin 0.003%, DMSO 1%) for 180 min at RT. The incubation is terminated by filtration with ice cold NaCl 0.9% through polyethyleneimine treated (0.3%) grade GF/B glass fiber filters using a cell harvester. The protein-bound radioactivity is measured in a suitable reader. The non-specific binding is defined as radioactivity bound in the presence of 1 μM Somatostatin-14 during the incubation period. The analysis of the concentration-binding curves is performed by computer-assisted nonlinear least square curve fitting method using the model of one receptor binding site.

T1 sequence (P31391 whole entry): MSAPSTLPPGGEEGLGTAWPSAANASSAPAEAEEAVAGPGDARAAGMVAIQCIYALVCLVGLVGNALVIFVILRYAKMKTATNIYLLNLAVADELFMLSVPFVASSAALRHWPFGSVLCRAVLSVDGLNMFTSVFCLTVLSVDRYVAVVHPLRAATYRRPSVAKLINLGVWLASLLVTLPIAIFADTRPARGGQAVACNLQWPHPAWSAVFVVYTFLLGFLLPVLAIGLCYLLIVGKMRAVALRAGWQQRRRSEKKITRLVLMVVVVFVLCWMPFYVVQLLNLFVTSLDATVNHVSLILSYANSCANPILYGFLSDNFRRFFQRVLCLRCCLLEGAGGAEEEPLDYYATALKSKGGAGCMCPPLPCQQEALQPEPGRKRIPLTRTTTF

Cc1cccnc1OCC(C)(C)NC(=O)[C@H]1[C@@H]2CNC[C@@H]21.O=C(O)CC(O)(CC(=O)O)C(=O)O [Example 2, (1S,5R)-(1α,5α,6α)-N-[1,1-dimethyl-2-[(3-methyl-2-pyridyl)oxy]ethyl]-3-azabicyclo[3.1.0]hexane-6-carboxamide citrate]
SSTR4 agonism (in words) [1]: agonists of SSTR4
Selectivity of binding to SSTR4 over SSTR1, SSTR2, SSTR3 and SSTR5 (in words) [2]: selectively bind to SSTR4

Cc1cccnc1OCC(C)(C)NC(=O)[C@H]1[C@@H]2CNC[C@@H]21.O=C(O)C[C@H](O)C(=O)O [Example 3, (1S,5R)-(1α,5α,6α)-N-[1,1-dimethyl-2-[(3-methyl-2-pyridyl)oxy]ethyl]-3-azabicyclo[3.1.0]hexane-6-carboxamide L-malate]
SSTR4 agonism (in words) [1]: agonists of SSTR4
Selectivity of binding to SSTR4 over SSTR1, SSTR2, SSTR3 and SSTR5 (in words) [2]: selectively bind to SSTR4

Cc1cccnc1OCC(C)(C)NC(=O)[C@H]1[C@@H]2CNC[C@@H]21.O=C(O)C(O)C(O)C(=O)O [Example 1, (1S,5R)-(1α,5α,6α)-N-[1,1-dimethyl-2-[(3-methyl-2-pyridyl)oxy]ethyl]-3-azabicyclo[3.1.0]hexane-6-carboxamide L-tartrate sesquihydrate]
SSTR4 agonism (in words) [1]: agonists of SSTR4
Selectivity of binding to SSTR4 over SSTR1, SSTR2, SSTR3 and SSTR5 (in words) [2]: selectively bind to SSTR4
